Here are results for 20 compounds from patent publication US9708259B2 (Hoffmann-La Roche Inc., priority 2013, dated 2017).

One assay addresses T1, human M1 (Homo sapiens, UniProt P11229).
T1 construct: expressed in transfected cells; host or cells: CHO cells
T1 sequence (P11229 1-460): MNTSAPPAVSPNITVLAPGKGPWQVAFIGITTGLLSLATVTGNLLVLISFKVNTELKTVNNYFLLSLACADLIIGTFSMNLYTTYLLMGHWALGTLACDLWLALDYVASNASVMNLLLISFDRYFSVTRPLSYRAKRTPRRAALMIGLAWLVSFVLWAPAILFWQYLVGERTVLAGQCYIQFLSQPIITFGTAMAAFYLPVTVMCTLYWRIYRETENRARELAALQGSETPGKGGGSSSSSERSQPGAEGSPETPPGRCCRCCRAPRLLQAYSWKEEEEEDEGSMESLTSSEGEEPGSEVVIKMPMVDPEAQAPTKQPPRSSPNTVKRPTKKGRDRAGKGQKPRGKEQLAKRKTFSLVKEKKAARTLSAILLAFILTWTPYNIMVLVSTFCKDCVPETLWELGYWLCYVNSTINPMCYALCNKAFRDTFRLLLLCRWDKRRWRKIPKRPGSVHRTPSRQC
Description: M1 PAM assay (FLIPR intracellular calcium), human M1. It counts as cell-based. The procedure: The assay study the effect of several concentrations of test compounds on basal or acetylcholine-stimulated Ca^2+ levels using FLIPR.
CHO human M1 are plated the day before the experiments at 2×10^5 cells/ml in PDL BioCoat 96 well black/clear plate (Becton 35 4640). The cells are grown at 37° C. and 5% CO2 in the following medium: F12 Nut Mix (Gibco 21765), 10% FCS heat inactivated (GIBCO 16000-044), 1% Pen Strep (Gibco,15140) and 200 μg/ml Geneticin (Gibco 11811). On the day of the experiment, the medium was removed and replaced by […] of dye loading buffer containing Hanks Balanced Salt solution (HBSS, 14065-049, Gibco) with 20 mM HEPES (Gibco 15630-056), 2 mM Probenicid (Sigma P8761), […] ester (Molecular Probes F-14202), 10% Pluronic acid Molecular Probes P-3000) pH=7.4 and incubated at 37° C. After 60 minutes extracellular dye was removed and the cells were washed five times with FLIPR buffer containing HBSS (Gibco 14065-049) with 20 mM HEPES (Gibco, 15630-056), 2 mM Probenicid (Sigma P8761) pre-warmed at 37° C. using and Ebml cell washer leaving […] of FLIPR buffer in each well. The cell plate and the diluted compounds (1% DMSO final concentration) are placed on the platform of the FLIPR and the door closed. A signal test to check background fluorescence and basal fluorescence signal is performed. Laser intensity is adjusted if necessary. Two minutes preincubation with the diluted test compounds is provide to determine any agonist activity on the M1 receptor by comparison to 30 nM Acetylcholine control. In order to determine any modulator activity the diluted compounds were added to cells and after two minutes preincubation, the EC20 of acetylcholine is added followed by another two minutes preincubation before the measurement of intracellular Ca^2+ with a FLIPR (Molecular Devices).
(A change in cytosolic calcium serves as a functional read-out for many receptors and channels.)

For a further assay, the target named is T2, ratM1 (Rattus norvegicus, UniProt P08482).
T2 construct: expressed in transfected cells; host or cells: CHO cells (stated generally for the assay, not specifically for rat M1)
T2 sequence (P08482 1-460): T1 sequence (P11229 1-460) with A5V, T254S, P309S, R320K, A337G, I413V
Description: M1 PAM assay (FLIPR intracellular calcium), rat M1. It counts as cell-based.

Setting [1] is: CHO human M1 cells, FLIPR Ca2+, with EC20 of acetylcholine, first value of the cell, read-out: hM1 EC50.
The mark [2] stands for this setting: rat M1, FLIPR Ca2+, second value of the cell, read-out: ratM1 EC50.

Positions count from the first letter of the chain named. Like-named read-outs stand apart in the source and are kept apart here.

Take `CNC(=O)c1ccc(Cn2cc(C(=O)NC3CCOC(C)(C)C3)c3c(F)cccc32)cc1` (stereo not shown) [Example 119, N-(2,2-dimethyloxan-4-yl)-4-fluoro-1-[[4-(methylcarbamoyl)phenyl]methyl]indole-3-carboxamide]: the EC50 at human M1 (setting [1]) was 6 nM; at ratM1 (setting [2]), 12 nM.
Regarding `Cn1cc(-c2ccc(Cn3cc(C(=O)NC4CCCOC4)c4c(F)cccc43)c(F)c2)cn1` (stereo not shown) [Example 19, 4-fluoro-1-(2-fluoro-4-(1-methyl-1H-pyrazol-4-yl)benzyl)-N-(tetrahydro-2H-pyran-3-yl)-1H-indole-3-carboxamide], the EC50 at human M1 (setting [1]) is 229 nM; at ratM1 (setting [2]), 579 nM.
The corresponding values for `Cc1ccc(F)c2c(C(=O)NC3CCCOC3)cn(Cc3ccc(-c4cnn(C)c4)cc3)c12` (stereo not shown) [Example 48, 4-fluoro-7-methyl-1-(4-(1-methyl-1H-pyrazol-4-yl)benzyl)-N-(tetrahydro-2H-pyran-3-yl)-1H-indole-3-carboxamide] are 251 nM and 528 nM.
On to `Cn1ncc2cc(Cn3cc(C(=O)N[C@H]4CCOC[C@@H]4O)c4c(F)cccc43)ccc21` (single isomer, unassigned) [Example 52, 4-fluoro-N-((3R,4S) or (3S,4R)-3-hydroxytetrahydro-2H-pyran-4-yl)-1-((1-methyl-1H-indazol-5-yl)methyl)-1H-indole-3-carboxamide], for which the EC50 on human M1 amounted to 17.9 nM; on ratM1, 27 nM.
In the case of `Cc1nc(-c2ccc(Cn3cc(C(=O)N[C@H]4CCOC[C@@H]4O)c4c(F)cccc43)cc2)no1` [Example 83, 4-fluoro-N-((3R,4S)-3-hydroxytetrahydro-2H-pyran-4-yl)-1-(4-(5-methyl-1,2,4-oxadiazol-3-yl)benzyl)-1H-indole-3-carboxamide], the 50% effective concentration (EC50) amounted to 184 nM on human M1 (setting [1]) and 160 nM at ratM1 (setting [2]).
The corresponding values for `Cn1cc(-c2ccc(Cn3cc(C(=O)N[C@H]4CCCC(F)(F)[C@@H]4O)c4c(F)cccc43)cc2)cn1` [Example 101, N-((1S,2R)-3,3-difluoro-2-hydroxycyclohexyl)-4-fluoro-1-(4-(1-methyl-1H-pyrazol-4-yl)benzyl)-1H-indole-3-carboxamide] are 14 nM and 42 nM.
The corresponding values for `Cn1cc(-c2ccc(Cn3cc(C(=O)N[C@H]4CCCC[C@@H]4O)c4c(F)c(F)c(F)c(F)c43)cn2)cn1` [Example 27, 4,5,6,7-tetrafluoro-N-((1S,2S)-2-hydroxycyclohexyl)-1-((6-(1-methyl-1H-pyrazol-4-yl)pyridine-3-yl)methyl)-1H-indole-3-carboxamide] are 56 nM and 80.7 nM.
The corresponding values for `CNC(=O)c1ccc(Cn2cc(C(=O)NC3CCC3)c3c(F)cccc32)cc1` [Example 112, N-cyclobutyl-4-fluoro-1-[[4-(methylcarbamoyl)phenyl]methyl]indole-3-carboxamide] are 72 nM and 168 nM.
Consider `O=C(N[C@H]1CCCC[C@@H]1O)c1cn(Cc2ccc(F)c(F)c2)c2cccc(F)c12` [Example 41, 1-(3,4-difluorobenzyl)-4-fluoro-N-((1S,2S)-2-hydroxycyclohexyl)-1H-indole-3-carboxamide], for which the EC50 at human M1 was 219 nM; at ratM1, 456 nM.
Regarding `CO[C@H]1COC[C@@H]1NC(=O)c1cn(Cc2ccc(-c3cnn(C)c3)cc2)c2cccc(F)c12` [Example 8, 4-fluoro-N-[(3S,4R)-4-methoxyoxolan-3-yl]-1-[[4-(1-methylpyrazol-4-yl)phenyl]methyl]indole-3-carboxamide], the EC50 at human M1 (setting [1]) amounted to 278 nM; at ratM1 (setting [2]), 427 nM.
The corresponding values for `CNC(=O)c1ccc(Cn2cc(C(=O)N[C@H]3CCCC[C@@H]3O)c3c(F)cccc32)cn1` [Example 87, 4-fluoro-N-((1S,2S)-2-hydroxycyclohexyl)-1-((6-(methylcarbamoyl)pyridin-3-yl)methyl)-1H-indole-3-carboxamide] are 73.4 nM and 120 nM.
`Cc1cn(-c2ccc(Cn3cc(C(=O)N[C@H]4CCCC[C@@H]4O)c4c(F)cccc43)cc2)cn1` [Example 36, 4-fluoro-N-((1S,2S)-2-hydroxycyclohexyl)-1-(4-(4-methyl-1H-imidazol-1-yl)benzyl)-1H-indole-3-carboxamide]: the figures for the EC50 at human M1 (setting [1]) and on ratM1 (setting [2]) were 15.5 nM and 25.9 nM, respectively.
For `CNC(=O)c1ccc(Cn2cc(C(=O)NC3CCSCC3)c3c(F)cccc32)cc1` [Example 124, 4-fluoro-1-[[4-(methylcarbamoyl)phenyl]methyl]-N-(thian-4-yl)indole-3-carboxamide], the values for the EC50 on human M1 (setting [1]) and on ratM1 (setting [2]) were 11 nM and 24 nM, respectively.
For the compound `Cn1cc(-c2ccc(Cn3cc(C(=O)NC4CCOCC4)c4c(F)ccc(F)c43)c(F)c2)cn1` [Example 96, 4,7-difluoro-1-(2-fluoro-4-(1-methyl-1H-pyrazol-4-yl)benzyl)-N-(tetrahydro-2H-pyran-4-yl)-1H-indole-3-carboxamide], the EC50 at human M1 (setting [1]) is 28 nM; on ratM1 (setting [2]) it was 73 nM.
The corresponding values for `O=C(N[C@H]1CCCC[C@@H]1O)c1cn(Cc2ccc(N3CCCC3)cc2)c2cccc(F)c12` [Example 161, 4-fluoro-N-((1S,2S)-2-hydroxycyclohexyl)-1-(4-(pyrrolidin-1-yl)benzyl)-1H-indole-3-carboxamide] are 121 nM and 307 nM.
As for `O=C(N[C@H]1CCCC[C@@H]1O)c1cn(Cc2ccn3ccnc3c2)c2cccc(F)c12` [Example 144, 4-fluoro-N-((1S,2S)-2-hydroxycyclohexyl)-1-(imidazo[1,2-a]pyridin-7-ylmethyl)-1H-indole-3-carboxamide], the values for the EC50 on human M1 and on ratM1 were 70 nM and 172 nM, respectively.
As to `Cc1cn(-c2ccc(Cn3cc(C(=O)NC4CCOCC4)c4c(F)cccc43)cc2)cn1` [Example 67, 4-fluoro-1-(4-(4-methyl-1H-imidazol-1-yl)benzyl)-N-(tetrahydro-2H-pyran-4-yl)-1H-indole-3-carboxamide], the concentration for a half-maximal effect (EC50) was 82.8 nM on human M1 (setting [1]) and 183 nM on ratM1 (setting [2]).
The corresponding values for `Cn1cc(-c2ccc(Cn3cc(C(=O)N[C@H]4CCCC[C@]4(C)O)c4c(F)cccc43)c(F)c2)cn1` (racemic) [Example 18, 4-fluoro-1-(2-fluoro-4-(1-methyl-1H-pyrazol-4-yl)benzyl)-N-((1SR,2SR)-2-hydroxy-2-methylcyclohexyl)-1H-indole-3-carboxamide] are 61.2 nM and 185 nM.
As to `N#Cc1ccc(Cn2cc(C(=O)N[C@H]3CCOC[C@@H]3O)c3c(F)cccc32)cc1` (single isomer, unassigned) [Example 54, 1-(4-cyanobenzyl)-4-fluoro-N-((3R,4S) or (3S,4R)-3-hydroxytetrahydro-2H-pyran-4-yl)-1H-indole-3-carboxamide], the 50% effective concentration (EC50) at human M1 turned out to be 69.6 nM; on ratM1, 122 nM.
Regarding `O=C(N[C@H]1CCCC[C@@H]1O)c1cn(Cc2ccc(-c3ccno3)cc2)c2cccc(F)c12` [Example 138, 4-fluoro-N-((1S,2S)-2-hydroxycyclohexyl)-1-(4-(isoxazol-5-yl)benzyl)-1H-indole-3-carboxamide], the EC50 on human M1 (setting [1]) amounted to 16 nM; at ratM1 (setting [2]) it was 38 nM.

As usually defined, the EC50 is the concentration needed to bring the measured effect to its halfway point.
